According to patent publication US20060240402A1, “Marine invertebrate gametes and embryos as an assay system for therapeutic screening” (priority 2005, published 2006):

Experiments:
[1] = tested on: Spisula oocytes; experiment: Whole egg germinal vesicle breakdown (GVBD) and spindle assembly assay; assay type: cell-based, Spisula solidissima
Experimental: Oocytes are prepared as generally described in Allen R D. (1953) Biol Bull. 105:213-239; Palazzo, R. E., Vaisberg, E., Cole, R. W. and Rieder, C. L. (1992) Science. 256: 219-221; Vogel, J. M., Stearns, T., Rieder, C. L. and Palazzo, R. E. (1997) J. Cell Biol. 137: 193-202; and Schnackenberg, B. J. and Palazzo, R. E. (1999) Biology of the Cell. 91: 429-438.
(§1) Briefly, adult Spisula or Mulinia are collected from the Atlantic Ocean, often by the Marine Resources Department of the Marine Biological Laboratory (Woods Hole, Mass.) or from commercial fisherman and maintained in flow-through sea water tanks at ˜13° C. containing artificial sea water (ASW). Oocytes are then dissected from ripe ovaries, passed through cheese cloth, and washed in sea water by three cycles of suspension/sedimentation. Oocytes are then activated by treatment with KCl for 4 min, and lysates are prepared as previously described by Palazzo et al. (Palazzo, R. E., J. B. Brawley, and L. I. Rebhun (1988). Zool. Sci. (Tokyo). 5: 603-611).
(§2) Aster formation in oocytes, embryos, and lysates is assessed with polarized light microscopy by adding 3% hexylene glycol to small aliquots and warming to 24° C. (Palazzo, R. E., J. B. Brawley, and L. I. Rebhun (1988). Zool. Sci. (Tokyo). 5: 603-611). The remaining lysate is aliquoted, snap frozen, and stored at −80° C. Frozen lysates retain the ability to assemble asters after years of storage.
In one embodiment of the invention, oocyte activation to induce GVBD, aster formation, spindle assembly, and cleavage can be induced by 5-hydroxy triptamine (5-HT, serotonin), fertilization, or depolarization of the cell plasma membrane by treatment with KCl when cells are incubated in sea water. This requires the entry of calcium into the cell after treatment with these agents. Thus, the GVBD, or events subsequent to GVBD, can be used as indicators for hormone-receptor interactions (serotonin), effect of calcium channel blockers (resulting in a block of GVBD and subsequent events after treatment with KCL, 5HT or sperm), or agents that block fertilization generally. Therefore the present invention can be used not only to screen for antimitotic agents but also putative neuromodulators (serotonin inhibitors and the like), cardiomodulators, vasoactive agents (calcium channel blockers) and anti-fertility agents.
Using the whole egg assay described above, Spisula oocytes were treated with 0.25 μM HMN-176 or 0.001% DMSO and activated to undergo germinal vesicle (nucleus) breakdown (GVBD), and aster and spindle formation.

[2] = tested on: human tumor cell lines; conditions: several human tumor cell lines; cited from earlier work
[3] = tested on: clam tubulin; experiment: Tubulin turbidity assay, clam tubulin; assay type: biochemical, Spisula solidissima; conditions: 0.025 uM, 0.25 uM and 2.5 uM; 30° C., 0.7 mg/mL of tubulin
Experimental: Three-cycled tubulin can also be prepared from Spisula oocyte lysates using a modification of the procedure described in Suprenant, K. A. (1989) Exp. Cell Res. 184: 167-180. Lysates are thawed and diluted with 0.8 vol of dilution buffer (100 mM potassium-Pipes, pH 7.2, 4 mM EGTA, 1 mM MgSO4, 1 mM DTT) containing 1 mM GTP, […] leupeptin, and 0.2 mM phenylmethylsulfonyl fluoride. Diluted lysate is then gently resuspended on ice and centrifuged (39,000 g/2° C./30 min) using a rotor (model JA20; Beckman Instruments Fullerton, Calif.) to clarify. Supernatants are collected and three-cycled tubulin prepared as previously described (Suprenant, K. A. (1989) Exp. Cell Res. 184: 167-180).
(§3) The tubulin polymerization assay used herein is performed according to the teachings of Vogel, J. M., Steams, T., Rieder, C. L. and Palazzo, R. E. (1997) J. Cell Biol. 137: 193-202 and Suprenant K A, Marsh J C. (1987) J Cell Sci. 87:71-84, each of which is incorported herein by reference in its entirety.
(§4) Sea urchin and clam tubulin turbidity assays were performed at 30° C. and 0.7 mg/mL of tubulin. Doses of 0.025 uM, 0.25 uM and 2.5 uM of HMN-176 were compared to DMSO treatment, all of which were compared to untreated control.

[4] = tested on: Isolated centrosomes reconstituted with sea urchin tubulin; experiment: Isolated centrosome assay (aster formation in defined media); assay type: biochemical, Spisula solidissima; conditions: 0.25 uM, 0.75 mg/mL sea urchin tubulin, time course of 25 minutes
Source text: Centrosomes are isolated and prepared according to the methods of Vogel et al. (Vogel, J. M., Stearns, T., Rieder, C. L. and Palazzo, R. E. (1997) J. Cell Biol. 137: 193-202). Briefly, centrosomes are isolated from lysates by sucrose density-gradient centrifugation using a modification of the procedures known in the art for isolation of mammalian centrosomes. As such, lysates are thawed on ice, and aliquots are removed and tested for aster formation using hexylene glycol and polarized light microscopy as previously described. For each preparative gradient, 2-3 ml of crude lysate (˜9-18×10^6 centrosomes) are diluted with 0.60 vol of aster buffer (Aster Buffer: 20 mM sodium-Pipes, pH 7.2, 100 mM NaCl, 5.0 mM MgSO4), resuspended, and centrifuged (5,500 g/4° C./10 min) using a rotor (model JS 13.1; Beckman Instruments). […] Fractions (1.0 ml) are collected at 4° C. by bottom puncture of centrifuge tubes, and sucrose density is determined with the use of a hand-held refractometer.
Fractions are tested for centrosome content based on their ability to organize microtubules in the form of radial astral arrays when reconstituted with tubulin media. Thus, 10 μl aliquots from each fraction are diluted into 40 μl of tubulin media (0.3-0.7 mg/ml three-cycled sea urchin tubulin in RAB buffer containing 2 mM GTP) and incubated for 10 min at ambient temperature, and asters are counted using a hemacytometer viewed with a polarized light microscope. […]
Centrosome assembly and function is crucial for the coordinated polymerization of microtubules that leads to spindle assembly and chromosome segregation during mitosis. […] The isolated centrosome assay is used to (1) induce the synchronous assembly of centrosomes in hundreds of grams of live Spisula oocytes or large quantities of oocyte lysates and is performed according to the methods disclosed by Palazzo, R. E., Vaisberg, E., Cole, R. W. and Rieder, C. […]

[5] = tested on: CFPAC cells; experiment: Mammalian spindle phenotypes and time in mitosis in CFPAC cells; assay type: cell-based, human
Experimental: To determine the effect of HMN-176 on mammalian cell lines, the transformed human cell line, CFPAC, was used. CFPAC cells were derived from a ductal adenocarcinoma (liver metastasis) from a patient with cystic fibrosis (ATCC #CRL-1918). CFPAC cellswere treated for 2 hours with 0.5 uM DMSO or 0.5 uM HMN-176 (n=79). Cells were studied for progression through mitosis and cell cleavage using video microscopy, or prepared for immunofluorescence analysis with antibodies to visualize beta tubulin or treated with Hoechst 33342 (Sigma Aldrich, St. Louis, Mo. to visualize DNA and chromosomes.

[6] = tested on: centrosomes in Spisula lysates; experiment: Lysate aster formation assay; assay type: biochemical, Spisula solidissima; conditions: 0.025 uM, 0.25 uM or 2.5 uM
Experimental: as §1, §2
Using the lysate aster formation assay described above, Spisula lysates were warmed to room temperature with lysates containing varying amounts of HMN-176 (0.025 uM, 0.25 uM or 2.5 uM) or DMSO (0.0001%, 0.001%, or 0.01%) as control. […]

[7] = tested on: sea urchin tubulin; experiment: Tubulin polymerization (turbidity) assay, sea urchin tubulin; assay type: biochemical, Strongylocentrotus purpuratus; conditions: 0.025 uM, 0.25 uM and 2.5 uM
Experimental: Sea urchin (Strongylocentrotus purpuratus) microtubules are prepared by three cycles of polymerization/depolymerization as previously described (Suprenant, K. A., and J. C. Marsh (1987) J. Cell Sci. 87: 71-84). Aliquots of ˜0.5-2.0 mg/ml protein are stored in 100 mM potassium-Pipes, pH 6.9, 1 mM EGTA, 5 mM MgSO4, 2 mM GTP (reassembly buffer) at −80° C. Three-cycled tubulin is diluted with reassembly buffer to 0.7 mg/ml for all functional assays unless otherwise stated.
as §3
The effect of HMN-176 on sea urchin tubulin (0.75 mg/mL of S. purpuratus tubulin at 26° C.) polymerization in defined media was examined according to the methods described above. Sea urchin tubulin was isolated from Strongylocentrotus purpuratus oocytes by three cycles of microtubule polymerization and depolymerization. After the third cycle, microtubules were depolymerized, centrifuged to clarify, and the resulting supernatant adjusted to a concentration of 0.75 mg/ml protein. Samples were aliquoted and stored at −80° C.
The polymerization assay was used to test the effects of varying concentrations of HMN-176 (0.025 uM, 0.25 uM and 2.5 uM) along with varying amounts of DMSO for control (0.0001%, 0.001% and […]), respectively. Polymerization of untreated tubulin was also measured.
as §4

[8] = tested on: mouse xenograft models; conditions: cited from earlier work
[9] = marine invertebrate gamete system, concentration not given
[10] = 0.5 uM treatment for 2 hours, n = 79
[11] = 0.75 mg/mL S. purpuratus tubulin at 26° C.

Structure (SMILES): COc1cc2c(c(OC)c1OC)-c1ccc(OC)c(=O)cc1[C@@H](NC(C)=O)CC2 [Colchicine]
- Effect on GVBD [1, 9]: does not affect GVBD
- Effect on spindle assembly [1, 9]: inhibits spindle assembly
- Cytotoxicity [2]: cytotoxic

Structure (SMILES): COc1ccc(S(=O)(=O)Nc2ccccc2/C=C/c2cc[n+]([O-])cc2)cc1 [HMN-176, (E)-4-{[2-N-[4-methoxybenzenesulfonyl]amino]stillbazole}1-oxide]
- Effect on clam tubulin turbidity [3]: Very little to no effect
- Aster formation by isolated centrosomes in defined media [4]: no asters were formed
- Background microtubule polymerization (not centrosome-associated) [4]: microtubule polymerization was observed in the background
- Status of centrosomes (gamma-tubulin staining) [4]: Centrosomes remained intact in all samples
- Spindle types observed ([5]; 0.5 uM for 2 hours): multipolar spindles with disorganized chromosomes
- Spindle type: Bipolar, number of cells [5, 10]: 13
- Spindle type: Bipolar, percent of cells [5, 10]: 16%
- Spindle type: Monopolar, number of cells [5, 10]: Monopolar 0 (0%)
- Spindle type: Monopolar, percent of cells [5, 10]: Monopolar 0 (0%)
- Spindle type: Multipolar, number of cells [5, 10]: 66
- Spindle type: Multipolar, percent of cells [5, 10]: 84%
- Time that CFPAC cells were in mitosis ([5]; 0.5 uM, video microscopy): 147 ± 55 min
- Effect on germinal vesicle breakdown (GVBD) ([1]; 0.25 μM, activated Spisula oocytes, observed at 9-26 minutes): not affecting GVBD
- Effect on spindle assembly in oocytes ([1]; 0.25 μM, activated Spisula oocytes, observed at 15 and 26 minutes): inhibit spindle assembly
- Status of centrosomes (immunofluorescence alpha-/gamma-tubulin) ([6]; lysates): centrosomes remained intact in all samples
- Effect on aster formation in lysates ([6]; lysates warmed to room temperature): blocked aster formation in the lysate aster formation assay in a dose dependent manner
- Effect on polymerization of tubulin [7, 11]: only minor effect on the polymerization of tubulin
- Effect on rate of microtubule polymerization [7, 11]: may slightly lower the rate of microtubule polymerization
- Effect on ultimate plateau of tubulin polymerization (turbidity) ([7]; 0.75 mg/mL S. purpuratus tubulin at 26° C., by 25 minutes): does not affect the ultimate plateau
- Effect on sea urchin tubulin turbidity ([7]; 30° C., 0.7 mg/mL of tubulin): Very little to no effect

Structure (SMILES): COc1ccc(S(=O)(=O)N(C(C)=O)c2ccccc2/C=C/c2cc[n+]([O-])cc2)cc1 [HMN-214, (E)-4-{2-[2-(N-acetyl-N-[4-methoxybenzenesulfonyl]amino]stillbazole]}1-oxide]
- Antitumor activity [8]: potent antitumor activity
